Assay results from patent US5679671A, “Amino acid derivative” (Eisai Co., Ltd., priority 1993, dated 1997).
pIC50: −log10 of the molar value.

Columns and labels:
[1] = Blood level and bioavailability in rats (Experiment E-2); settings: rat, blood, po
Excerpt: Then changes in the blood level of each medicament were monitored with the lapse of time by using liquid chromatography.

NEP = biological target: T1, NEP (Rattus norvegicus, UniProt P07861); test: NEP inhibition activity using rat renal cortex (Experiment A-1); type: biochemical; set-up: membrane fraction prepared from rat renal cortex; from tissue; host or cells: rat renal cortex, membrane fraction (method of Booth and Kenny); settings: rat renal cortex membrane fraction
T1 sequence (P07861 1-750): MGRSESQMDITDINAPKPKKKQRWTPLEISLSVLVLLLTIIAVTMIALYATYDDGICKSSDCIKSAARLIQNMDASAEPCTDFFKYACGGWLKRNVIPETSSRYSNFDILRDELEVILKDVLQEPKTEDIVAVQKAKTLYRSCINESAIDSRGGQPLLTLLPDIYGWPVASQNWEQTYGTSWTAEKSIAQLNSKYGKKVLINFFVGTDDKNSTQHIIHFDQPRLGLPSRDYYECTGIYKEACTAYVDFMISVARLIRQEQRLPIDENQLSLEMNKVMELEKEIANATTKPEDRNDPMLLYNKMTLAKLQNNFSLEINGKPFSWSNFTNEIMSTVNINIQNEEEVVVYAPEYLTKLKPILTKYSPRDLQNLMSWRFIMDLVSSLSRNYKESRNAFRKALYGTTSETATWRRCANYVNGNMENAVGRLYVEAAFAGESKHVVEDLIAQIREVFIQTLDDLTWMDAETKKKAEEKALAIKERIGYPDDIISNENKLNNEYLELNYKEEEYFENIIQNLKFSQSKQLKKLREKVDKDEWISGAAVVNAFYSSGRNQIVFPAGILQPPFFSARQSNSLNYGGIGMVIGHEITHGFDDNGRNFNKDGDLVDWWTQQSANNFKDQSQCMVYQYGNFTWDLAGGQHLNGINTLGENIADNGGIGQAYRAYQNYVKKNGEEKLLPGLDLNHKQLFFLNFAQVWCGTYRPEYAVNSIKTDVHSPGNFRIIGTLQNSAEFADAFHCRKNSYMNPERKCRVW
Protocol: The NEP activity was determined by using a membrane fraction prepared from rat renal cortex in accordance with the method of Booth and Kenny (A Rapid Metod for the Purificaton of Microvilli from Rabbit Kidney., Andrew G. Booth and A. John Kenny, Biochem j., 1974, 142, […].).
The NEP activity was determined by the following manner in accordance with the method of Orlowsky and Wilk (Purification and Specificity of a Membrane-Bound Metalloendopeptidase from Bovine Pituitaries., Marian Orlowsky and Shrwin Wilk, Biochemistry, 1981, 20, 4942-4950.).
As a substrate, benzoyl-glycyl-arginyl-arginyl-2-naphthylamide (benzoyl-Gly-Arg-Arg-2-naphthylamide (Nova Biochem, Switzerland)) was used. In the presence of an NEP enzyme preparation and excessive leucine aminopeptidase (sigma chemical Co., U.S.A.), the liberated naphthylamine was made to undergo color development with first garnet (Sigma chemical Co., U.S.A.), followed by the measurement of the absorbance at a wavelength of 540 nm.
With respect to the NEP inhibition activity, the inhibitor was added to the experimental system as described above in such a manner as to give the final concentrations of 1, 3, 10, 30, 100, 300 and 1000 nM, an inhibition curve was prepared, and then the concentration at which 50% inhibition was achieved was taken as IC50.

[2] = biological target: T2, vasopressin (V2) receptor (Rattus norvegicus, UniProt Q00788); test: V2 receptor binding assay, rat kidney membrane (Experiment E-3); settings: [3H]-Arg-vasopressin, pH 7.4
T2 construct: rat kidney (V2); from tissue; host or cells: rat kidney membranes
T2 sequence (Q00788 whole entry): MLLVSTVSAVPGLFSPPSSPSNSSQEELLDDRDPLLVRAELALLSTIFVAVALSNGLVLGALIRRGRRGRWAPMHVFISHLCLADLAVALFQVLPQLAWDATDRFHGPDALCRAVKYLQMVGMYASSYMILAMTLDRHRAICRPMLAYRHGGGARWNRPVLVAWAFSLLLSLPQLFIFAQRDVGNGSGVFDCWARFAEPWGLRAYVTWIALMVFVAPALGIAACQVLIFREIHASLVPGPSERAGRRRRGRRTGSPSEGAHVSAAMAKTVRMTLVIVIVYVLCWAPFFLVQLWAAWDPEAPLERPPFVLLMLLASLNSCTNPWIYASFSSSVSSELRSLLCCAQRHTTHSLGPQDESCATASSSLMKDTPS
Protocol: (§1) Membrane specimens of rat liver (V1) and rat kidney (V2) were used. 100,000 counts (3.69 nM) of [^3 H]-Arg-vasopressin, 25 μg (1 mg protein/ml) of each membrane specimen and a test medicament (10^-7 to 10^-5 M) were incubated in a total volume of 250 μl of an assay buffer (pH=7.4) containing 10 mM of MgCl2, 2 mM of EGTA and 20 mM of HEPES at 4° C. over day and night. Then, the incubation was washed with 5-ml portions of the buffer 5 times to thereby separate the membrane specimen binding to vasopressin followed by filtration with the use of a glass filter (GF/F). This glass filter was dried for about 3 hours and mixed with a cocktail for liquid scintillation (10 ml, ACSII). After allowing to stand overnight, the amount of the [^3 H]-Arg-vasopressin binding to the membrane was determined with a liquid scintillation counter and the inhibition ratio was calculated in accordance with the following formula: […]
(§2) B1; the amount of [^3 H]-Arg-vasopressin binding to the membrane in the presence of excessive vasopressin (10 μM)
(§3) C0; the amount of [^3 H]-Arg-vasopressin binding to the membrane in the absence of the test medicament and
(§4) C1; the amount of [^3 H]-Arg-vasopressin binding to the membrane in the presence of both the test medicament in a known amount and [^3 H]-Arg-vasopressin. […]

[3] = biological target: T3, vasopressin (V1) receptor (Rattus norvegicus, UniProt P30560); test: V1 receptor binding assay, rat liver membrane (Experiment E-3); settings: [3H]-Arg-vasopressin, pH 7.4
T3 construct: Membrane specimens of rat liver (V1); from tissue; host or cells: rat liver membranes
T3 sequence (P30560 whole entry): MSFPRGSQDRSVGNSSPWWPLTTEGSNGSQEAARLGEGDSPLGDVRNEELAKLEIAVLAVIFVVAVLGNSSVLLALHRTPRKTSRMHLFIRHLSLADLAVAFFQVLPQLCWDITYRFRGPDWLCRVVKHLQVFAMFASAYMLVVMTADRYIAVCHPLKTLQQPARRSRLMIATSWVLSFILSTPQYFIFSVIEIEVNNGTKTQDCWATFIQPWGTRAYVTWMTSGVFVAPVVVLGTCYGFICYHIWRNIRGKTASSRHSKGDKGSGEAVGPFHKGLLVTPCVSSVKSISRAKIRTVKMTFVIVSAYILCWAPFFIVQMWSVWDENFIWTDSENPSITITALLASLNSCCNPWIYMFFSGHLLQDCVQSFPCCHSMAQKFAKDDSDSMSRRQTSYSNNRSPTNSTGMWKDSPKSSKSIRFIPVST
Protocol: as §1, §2, §3, §4

[4] = biological target: T3, vasopressin (V1) receptor; test: V1 receptor binding assay, rat liver membrane (Experiment F-2); settings: [3H]-Arg-vasopressin, pH 7.4
Protocol: as §1, with “in” for “in a total volume of”, “μl in total” for “μl”
as §2, §3, §4

[5] = biological target: T2, vasopressin (V2) receptor; test: V2 receptor binding assay, rat kidney membrane (Experiment F-2); settings: [3H]-Arg-vasopressin, pH 7.4
Protocol: as §1, with “in” for “in a total volume of”, “μl in total” for “μl”
as §2, §3, §4

## O=C(N[C@H]1Cc2ccccc2[C@H]2CCC[C@@H](C(=O)O)N2C1=O)[C@@H](S)Cc1ccccc1 [Comp. cpd. E-1, [4S-[4α,7α(R*),12bβ]]-7-[(1-oxo-2-(S)-thio-3-phenyl-propyl)amino]-1,2,3,4,6,7,8,12b-octahydro-6-oxopyrido-[2,1-a][2]benzazepine-4-carboxylic acid, reference compound]
[1]; 10 mg/kg
  bioavailability: 4.3%
[1]; 30 mg/kg
  bioavailability: 7.8%

## CC[C@H](C)[C@H](S)C(=O)NC1CCc2ccccc2N(CC(=O)O)C1=O (stereo partly drawn) [Example A-9, 1-Carboxymethyl-3-[(2S,3S)-2-mercapto-3-methylvarelylamino]-1H-[1]benzazepin-2-one]
NEP
  pIC50: 7.89

## CC[C@H](C)[C@H](S)C(=O)N[C@H]1CCc2ccccc2N(CC(=O)O)C1=O [Example A-11, (S)-3-[(2S,3S)-2-Mercapto-3-methylvarelylamino]-1-carboxymethyl-2,3,4,5-tetrahydro-1H-[1]benzazepin-2-one]
NEP
  pIC50: 8.21

## CC(C)[C@H](S)C(=O)N[C@H]1Cc2ccc(-c3ccccc3)cc2[C@H]2CCC[C@@H](C(=O)O)N2C1=O [Example E-10, [4S-[4α,7α(R*),12bβ]]-7-[(S)-2-Mercapto-3-methylbutyrylamino]-6-oxo-11-phenyl-1,2,3,4,6,7,8,12b-octahydropyrido[2,1-a][2]benzazepine-4-carboxylic acid]
[2]
  pIC50: 5.35
[3]
  pIC50: ≤ 5.00

## O=C(N[C@H]1CCC[C@H]2SC[C@@H](C(=O)O)N2C1=O)[C@@H](S)Cc1ccccc1 [Example F-17, [3R-[3α,6α(S*),9aβ]]-6-[[(S)-1-Oxo-2-thio-3-phenylpropyl]amino]-octahydro-5-oxothiazol[3,2-a]-azepine-3-carboxylic acid]
[4]
  pIC50: ≤ 5.00
[5]
  pIC50: 5.86
